In patent US11339163B2, “BRaf inhibitors and use thereof for treatment of cutaneous reactions” (Lutris Pharma Ltd., priority 2017, dated 2022):

Assays:
BRAF (V600E) = BRAF (V600E) (Homo sapiens, UniProt P15056, V600E); assay: BRaf inhibitory activity assay; type: biochemical; conditions: read-out: Compound IC50 BRAF (V600E)
Protocol: (§1) In this assay, the BRaf inhibitory activity of the compound of formula I, where
(§2) Reactions were carried out at 10 μM ATP.

wild-type BRaf = wild-type BRaf (Homo sapiens, UniProt P15056); assay: BRaf inhibitory activity assay; type: biochemical; conditions: read-out: Compound IC50 BRAF
Protocol: as §1, §2

[1] = tested on: ERK phosphorylation in HEKa cells; assay: phospho-ERK in HEKa cells following EGFR inhibitors (Western blot); type: cell-based, human
Protocol: Human normal keratinocyte cells HEKa were purchased from Gibco Rhenium and seeded in 10 cm dishes (300,000 cells/dish) and incubated overnight at 37° C., 5% CO2. Next morning, the medium was replaced to a starvation medium for 2 hours and then the cells were treated for 2 additional hours with the test compounds. Post incubation, the cells were lyzed with RIPA and the protein extracts were analyzed by western blot for Phospho-ERK and total ERK. Untreated cells and 0.1% DMSO treated cells were used as negative control. HKGS growth factors was used as a positive control.
Western blot: 7.5 μg of total extract was loaded on 10% acrylamide gel. Following transfer, the membranes were blocked with TBST/5% skimmed milk and then incubated with Mouse anti Phospho-ERK (1:1000 in TBST 5% BSA, ON at 4° C.) and goat anti Mouse HRP (1:10,000 in TBST 5% BSA, 1-hour RT). The membranes were exposed using SuperSignal West Pico Chemiluminescent Substrate.
The HRP was then inactivated by incubating the membranes for 1 hour with 0.5% sodium azide Following washes and ECL exposure in order to ensure absence of signal, the membranes were re-blocked for 15 min with TBST/5% skimmed milk and then incubated with Rabbit anti total ERK2 (1:500 in TBST 5% BSA, ON at 4° C.), goat anti Rabbit HRP (1:5,000 in TBST 5% BSA, 1-hour RT) and finally exposed using the SuperSignal West Pico Chemiluminescent Substrate. The films were scanned and the signal were quantified using ImageJ software. The results were calculated as Phospho-ERK/total ERK.
HKGS was used as a positive control.

minipigs = assay: MTD Dermal Minipigs; type: in vivo; conditions: 5 mg/kg/day for up to 6 days
Escherichia coli = assay: In vitro Ames test, reverse mutation assay; type: cell-based
[2] = BCOP study (eye irritation)
ASK1(h) = ASK1(h) (Homo sapiens, UniProt Q99683); assay: KinaseProfiler kinase selectivity assay; type: biochemical
Protocol: (§3) All compounds were prepared to 50× final assay concentration in 100% DMSO. This working stock of the compound was added to the assay well as the first component in the reaction, followed by the remaining components. In the standard KinaseProfiler™ service, there is no pre-incubation step between the compound and the kinase prior to initiation of the reaction. The positive control wells contain all components of the reaction, except the compound of interest; however, DMSO (at a final concentration of 2%) is included in these wells to control for solvent effects. The blank wells contain all components of the reaction, with a reference inhibitor replacing the compound of interest. This abolishes kinase activity and establishes the base-line (0% kinase activity remaining).

CDK2/cyclinA(h) = CDK2/cyclinA(h) (Homo sapiens, UniProt P24941); assay: KinaseProfiler kinase selectivity assay; type: biochemical
Protocol: as §3

CDK7/cyclinH/MAT1(h) = CDK7/cyclinH/MAT1(h) (Homo sapiens, UniProt P50613); assay: KinaseProfiler kinase selectivity assay; type: biochemical
Protocol: as §3

EGFR(h) = EGFR(h) (Homo sapiens, UniProt P00533); assay: KinaseProfiler kinase selectivity assay; type: biochemical
Protocol: as §3

EphB4(h) = EphB4(h) (Homo sapiens, UniProt P54760); assay: KinaseProfiler kinase selectivity assay; type: biochemical
Protocol: as §3

Fyn(h) = Fyn(h) (Homo sapiens, UniProt P06241); assay: KinaseProfiler kinase selectivity assay; type: biochemical
Protocol: as §3

GSK3β(h) = GSK3β(h) (Homo sapiens, UniProt P49841); assay: KinaseProfiler kinase selectivity assay; type: biochemical
Protocol: as §3

IRAK4(h) = IRAK4(h) (Homo sapiens, UniProt Q9NWZ3); assay: KinaseProfiler kinase selectivity assay; type: biochemical
Protocol: as §3

JAK2(h) = JAK2(h) (Homo sapiens, UniProt O60674); assay: KinaseProfiler kinase selectivity assay; type: biochemical
Protocol: as §3

KDR(h) = KDR(h) (Homo sapiens, UniProt P35968); assay: KinaseProfiler kinase selectivity assay; type: biochemical
Protocol: as §3

MEK1(h) = MEK1(h) (Homo sapiens, UniProt Q02750); assay: KinaseProfiler kinase selectivity assay; type: biochemical
Protocol: as §3

MKK7β(h) = MKK7β(h) (Homo sapiens, UniProt O14733); assay: KinaseProfiler kinase selectivity assay; type: biochemical
Protocol: as §3

Mnk2(h) = Mnk2(h) (Homo sapiens, UniProt Q9HBH9); assay: KinaseProfiler kinase selectivity assay; type: biochemical
Protocol: as §3

NEK2(h) = NEK2(h) (Homo sapiens, UniProt P51955); assay: KinaseProfiler kinase selectivity assay; type: biochemical
Protocol: as §3

PKBα(h) = PKBα(h) (Homo sapiens, UniProt P31749); assay: KinaseProfiler kinase selectivity assay; type: biochemical
Protocol: as §3

PKCθ(h) = PKCθ(h) (Homo sapiens, UniProt Q04759); assay: KinaseProfiler kinase selectivity assay; type: biochemical
Protocol: as §3

TAK1(h) = TAK1(h) (Homo sapiens, UniProt O43318); assay: KinaseProfiler kinase selectivity assay; type: biochemical
Protocol: as §3

p70S6K(h) = p70S6K(h) (Homo sapiens, UniProt P23443); assay: KinaseProfiler kinase selectivity assay; type: biochemical
Protocol: as §3

Chain of NEK2(h) (P51955 whole entry): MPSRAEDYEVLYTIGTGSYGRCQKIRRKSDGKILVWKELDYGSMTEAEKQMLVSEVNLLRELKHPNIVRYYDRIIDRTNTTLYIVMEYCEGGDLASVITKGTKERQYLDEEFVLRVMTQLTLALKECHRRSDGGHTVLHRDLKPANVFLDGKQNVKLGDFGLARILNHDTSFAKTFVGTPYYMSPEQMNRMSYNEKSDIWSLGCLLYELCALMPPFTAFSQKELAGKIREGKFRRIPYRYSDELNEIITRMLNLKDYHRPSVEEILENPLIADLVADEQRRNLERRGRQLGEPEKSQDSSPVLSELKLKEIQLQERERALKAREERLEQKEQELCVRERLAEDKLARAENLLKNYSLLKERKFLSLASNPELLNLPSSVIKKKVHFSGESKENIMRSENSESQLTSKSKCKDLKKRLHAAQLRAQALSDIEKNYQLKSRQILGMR
Chain of IRAK4(h) (Q9NWZ3 whole entry): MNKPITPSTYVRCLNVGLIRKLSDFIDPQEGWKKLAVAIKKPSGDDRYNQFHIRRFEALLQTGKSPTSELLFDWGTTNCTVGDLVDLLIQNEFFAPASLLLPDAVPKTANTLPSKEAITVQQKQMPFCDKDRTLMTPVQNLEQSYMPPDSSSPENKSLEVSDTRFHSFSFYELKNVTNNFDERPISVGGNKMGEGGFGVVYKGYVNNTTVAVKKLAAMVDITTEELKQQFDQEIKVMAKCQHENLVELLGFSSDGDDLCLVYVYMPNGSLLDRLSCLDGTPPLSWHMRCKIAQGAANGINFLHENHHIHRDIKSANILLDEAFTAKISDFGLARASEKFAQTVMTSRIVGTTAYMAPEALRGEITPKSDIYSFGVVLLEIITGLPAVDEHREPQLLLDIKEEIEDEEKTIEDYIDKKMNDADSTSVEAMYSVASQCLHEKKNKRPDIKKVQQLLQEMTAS
Chain of EGFR(h) (P00533 25-1210): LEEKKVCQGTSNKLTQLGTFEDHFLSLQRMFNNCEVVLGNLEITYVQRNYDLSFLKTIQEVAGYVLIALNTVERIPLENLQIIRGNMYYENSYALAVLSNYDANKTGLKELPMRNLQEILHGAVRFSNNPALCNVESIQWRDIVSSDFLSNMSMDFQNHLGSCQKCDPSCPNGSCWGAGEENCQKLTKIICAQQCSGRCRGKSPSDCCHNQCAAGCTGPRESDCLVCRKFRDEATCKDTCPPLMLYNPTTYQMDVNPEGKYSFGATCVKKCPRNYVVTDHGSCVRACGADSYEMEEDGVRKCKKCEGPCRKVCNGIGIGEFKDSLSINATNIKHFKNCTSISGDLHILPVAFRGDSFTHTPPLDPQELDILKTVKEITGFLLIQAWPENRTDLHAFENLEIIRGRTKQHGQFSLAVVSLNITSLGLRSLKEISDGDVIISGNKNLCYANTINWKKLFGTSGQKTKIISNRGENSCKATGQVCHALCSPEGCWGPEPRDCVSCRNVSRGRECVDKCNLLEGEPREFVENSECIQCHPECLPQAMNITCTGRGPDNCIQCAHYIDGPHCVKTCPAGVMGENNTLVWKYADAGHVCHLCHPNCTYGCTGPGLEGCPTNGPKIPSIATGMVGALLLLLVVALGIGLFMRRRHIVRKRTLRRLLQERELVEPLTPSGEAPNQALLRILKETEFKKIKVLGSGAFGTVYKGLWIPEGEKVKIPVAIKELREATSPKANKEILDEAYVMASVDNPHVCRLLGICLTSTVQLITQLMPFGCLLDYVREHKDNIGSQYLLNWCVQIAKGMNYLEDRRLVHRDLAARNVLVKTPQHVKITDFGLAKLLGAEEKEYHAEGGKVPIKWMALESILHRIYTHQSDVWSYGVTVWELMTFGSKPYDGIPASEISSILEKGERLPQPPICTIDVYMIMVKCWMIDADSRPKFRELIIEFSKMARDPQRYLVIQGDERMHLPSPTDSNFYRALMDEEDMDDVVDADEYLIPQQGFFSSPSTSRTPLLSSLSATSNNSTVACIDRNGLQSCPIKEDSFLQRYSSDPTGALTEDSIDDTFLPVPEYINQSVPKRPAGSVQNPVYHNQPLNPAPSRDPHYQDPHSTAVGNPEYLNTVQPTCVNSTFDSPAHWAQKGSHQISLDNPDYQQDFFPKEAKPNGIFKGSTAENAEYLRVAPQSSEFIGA
Chain of p70S6K(h) (P23443 whole entry): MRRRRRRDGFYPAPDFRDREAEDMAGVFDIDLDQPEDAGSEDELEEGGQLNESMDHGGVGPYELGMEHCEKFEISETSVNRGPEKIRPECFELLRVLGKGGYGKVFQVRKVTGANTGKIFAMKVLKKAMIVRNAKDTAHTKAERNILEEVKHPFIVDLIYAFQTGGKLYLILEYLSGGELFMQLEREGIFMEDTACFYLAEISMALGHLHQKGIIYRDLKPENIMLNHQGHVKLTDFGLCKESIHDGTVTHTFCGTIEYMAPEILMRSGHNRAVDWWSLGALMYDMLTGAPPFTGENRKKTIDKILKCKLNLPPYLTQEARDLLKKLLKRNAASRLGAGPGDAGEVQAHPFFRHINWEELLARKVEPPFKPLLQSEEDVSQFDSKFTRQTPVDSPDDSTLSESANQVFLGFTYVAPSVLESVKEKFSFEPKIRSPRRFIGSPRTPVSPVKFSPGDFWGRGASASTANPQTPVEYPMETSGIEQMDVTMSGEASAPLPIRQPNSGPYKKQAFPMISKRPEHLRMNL
Chain of JAK2(h) (O60674 whole entry): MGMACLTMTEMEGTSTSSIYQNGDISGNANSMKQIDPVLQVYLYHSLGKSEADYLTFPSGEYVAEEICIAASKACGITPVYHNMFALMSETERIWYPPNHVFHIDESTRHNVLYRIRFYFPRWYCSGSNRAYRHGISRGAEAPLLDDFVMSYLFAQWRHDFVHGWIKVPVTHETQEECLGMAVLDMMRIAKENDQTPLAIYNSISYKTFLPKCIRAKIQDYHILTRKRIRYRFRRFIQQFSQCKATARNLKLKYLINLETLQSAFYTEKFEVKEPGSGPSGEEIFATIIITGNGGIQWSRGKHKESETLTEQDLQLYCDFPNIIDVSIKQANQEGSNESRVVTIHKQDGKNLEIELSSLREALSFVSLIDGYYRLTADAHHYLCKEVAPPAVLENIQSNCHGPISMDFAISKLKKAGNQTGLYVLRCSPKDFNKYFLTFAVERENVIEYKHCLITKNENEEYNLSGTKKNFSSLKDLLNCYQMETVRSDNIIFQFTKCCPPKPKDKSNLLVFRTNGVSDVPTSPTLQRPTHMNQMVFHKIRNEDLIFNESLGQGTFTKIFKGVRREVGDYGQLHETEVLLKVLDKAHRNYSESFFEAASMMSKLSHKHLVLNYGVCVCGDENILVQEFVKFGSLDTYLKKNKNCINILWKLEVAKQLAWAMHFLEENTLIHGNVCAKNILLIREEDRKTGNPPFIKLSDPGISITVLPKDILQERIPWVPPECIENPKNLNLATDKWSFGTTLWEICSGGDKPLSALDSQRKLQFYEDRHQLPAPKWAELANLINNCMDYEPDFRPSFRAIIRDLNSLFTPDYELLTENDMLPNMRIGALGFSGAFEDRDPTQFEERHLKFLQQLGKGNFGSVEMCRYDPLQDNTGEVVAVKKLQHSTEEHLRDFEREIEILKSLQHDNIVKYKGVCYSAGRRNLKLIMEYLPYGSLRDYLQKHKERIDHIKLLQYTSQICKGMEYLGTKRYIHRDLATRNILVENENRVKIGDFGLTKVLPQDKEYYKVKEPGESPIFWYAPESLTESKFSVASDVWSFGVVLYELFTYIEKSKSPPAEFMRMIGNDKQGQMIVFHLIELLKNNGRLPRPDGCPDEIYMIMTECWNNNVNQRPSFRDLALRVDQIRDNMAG
Chain of MEK1(h) (Q02750 whole entry): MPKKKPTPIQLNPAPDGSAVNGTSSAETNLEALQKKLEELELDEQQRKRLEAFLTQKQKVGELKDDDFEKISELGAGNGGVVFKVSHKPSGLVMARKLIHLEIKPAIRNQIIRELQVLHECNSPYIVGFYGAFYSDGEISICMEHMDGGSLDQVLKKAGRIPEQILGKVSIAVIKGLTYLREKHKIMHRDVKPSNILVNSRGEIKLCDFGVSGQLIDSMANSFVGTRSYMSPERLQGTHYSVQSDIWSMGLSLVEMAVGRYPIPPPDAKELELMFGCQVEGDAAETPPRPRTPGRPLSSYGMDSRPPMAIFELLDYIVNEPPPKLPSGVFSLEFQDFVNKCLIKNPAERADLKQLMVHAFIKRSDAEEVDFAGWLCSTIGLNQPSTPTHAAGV
Chain of Fyn(h) (P06241 whole entry): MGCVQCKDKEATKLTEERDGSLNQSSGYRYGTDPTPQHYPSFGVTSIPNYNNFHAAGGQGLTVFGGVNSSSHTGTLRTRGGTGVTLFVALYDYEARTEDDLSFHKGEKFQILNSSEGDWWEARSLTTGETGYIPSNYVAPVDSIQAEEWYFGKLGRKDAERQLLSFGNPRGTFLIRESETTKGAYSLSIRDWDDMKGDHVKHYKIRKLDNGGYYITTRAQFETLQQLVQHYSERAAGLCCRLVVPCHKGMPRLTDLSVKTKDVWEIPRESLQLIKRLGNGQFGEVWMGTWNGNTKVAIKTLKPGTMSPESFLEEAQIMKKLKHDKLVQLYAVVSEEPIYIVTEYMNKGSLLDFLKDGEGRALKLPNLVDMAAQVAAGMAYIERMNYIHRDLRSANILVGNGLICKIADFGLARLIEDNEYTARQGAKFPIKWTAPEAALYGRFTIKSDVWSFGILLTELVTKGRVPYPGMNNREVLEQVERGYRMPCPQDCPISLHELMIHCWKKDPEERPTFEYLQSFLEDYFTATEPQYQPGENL
Chain of TAK1(h) (O43318 1-303 limits assumed): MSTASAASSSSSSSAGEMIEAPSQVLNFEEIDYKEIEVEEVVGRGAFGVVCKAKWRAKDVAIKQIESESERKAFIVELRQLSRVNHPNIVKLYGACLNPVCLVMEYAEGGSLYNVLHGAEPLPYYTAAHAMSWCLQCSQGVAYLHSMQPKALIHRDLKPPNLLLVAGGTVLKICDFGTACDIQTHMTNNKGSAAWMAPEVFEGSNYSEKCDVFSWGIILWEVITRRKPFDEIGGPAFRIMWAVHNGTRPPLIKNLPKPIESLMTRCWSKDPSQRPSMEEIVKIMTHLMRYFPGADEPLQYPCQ

In the case of `Cc1ccc2c(Nc3cccc(OC(F)(F)F)c3)nccc2c1Nc1ncccc1-c1ncnc2[nH]cnc12` [LUT014], the IC50 (BRAF (V600E)) is reported as 13.3 nM, the IC50 (wild-type BRaf) is reported as 11.7 nM and the “increase of phospho-ERK compared to the DMSO treated cells” value [1] is reported as 200-800%. The “phospho-ERK when added to cells treated with Erlotinib” value [1] was “increased”, the “phospho-ERK when added to cells treated with cetuximab” value [1] was “increased” and the tolerability (minipigs) was “well tolerated in minipigs at”. The “mutagenicity, Escherichia coli reverse mutation assay” value (Escherichia coli) was “not mutagenic”, the IVIS [2] was at most 3 and the “classification for eye irritation or serious eye damage” value [2] was “no classification is required”. The remaining activity at 0.01 µM (ASK1(h); Lut014 @ 0.01 μM) was 109%, the remaining activity at 1 µM (ASK1(h); Lut014 @ 1 μM) was 99% and the remaining activity at 0.01 µM (CDK2/cyclinA(h); Lut014 @ 0.01 μM) was 106%. The remaining activity at 1 µM (CDK2/cyclinA(h); Lut014 @ 1 μM) was 95%, the remaining activity at 0.01 µM (CDK7/cyclinH/MAT1(h); Lut014 @ 0.01 μM) was 105% and the remaining activity at 1 µM (CDK7/cyclinH/MAT1(h); Lut014 @ 1 μM) was 109%. For the same compound, the remaining activity at 0.01 µM (EGFR(h); Lut014 @ 0.01 μM) was 98%, the remaining activity at 1 µM (EGFR(h); Lut014 @ 1 μM) was 100% and the remaining activity at 0.01 µM (EphB4(h); Lut014 @ 0.01 μM) was 93%. For the same compound, the remaining activity at 1 µM (EphB4(h); Lut014 @ 1 μM) was 38%, the remaining activity at 0.01 µM (Fyn(h); Lut014 @ 0.01 μM) was 103% and the remaining activity at 1 µM (Fyn(h); Lut014 @ 1 μM) was 95%. The remaining activity at 0.01 µM (GSK3β(h); Lut014 @ 0.01 μM) was 105%, the remaining activity at 1 µM (GSK3β(h); Lut014 @ 1 μM) was 98% and the remaining activity at 0.01 µM (IRAK4(h); Lut014 @ 0.01 μM) was 94%. The remaining activity at 1 µM (IRAK4(h); Lut014 @ 1 μM) was 109%, the remaining activity at 0.01 µM (JAK2(h); Lut014 @ 0.01 μM) was 126% and the remaining activity at 1 µM (JAK2(h); Lut014 @ 1 μM) was 118%. It also gave a remaining activity at 0.01 µM (KDR(h); Lut014 @ 0.01 μM) of 96%, a remaining activity at 1 µM (KDR(h); Lut014 @ 1 μM) of 79% and a remaining activity at 0.01 µM (MEK1(h); Lut014 @ 0.01 μM) of 98%. For the same compound, the remaining activity at 1 µM (MEK1(h); Lut014 @ 1 μM) was 105%, the remaining activity at 0.01 µM (MKK7β(h); Lut014 @ 0.01 μM) was 100% and the remaining activity at 1 µM (MKK7β(h); Lut014 @ 1 μM) was 103%. The remaining activity at 0.01 µM (Mnk2(h); Lut014 @ 0.01 μM) was 112%, the remaining activity at 1 µM (Mnk2(h); Lut014 @ 1 μM) was 107% and the remaining activity at 0.01 µM (NEK2(h); Lut014 @ 0.01 μM) was 98%. It also gave a remaining activity at 1 µM (NEK2(h); Lut014 @ 1 μM) of 125%, a remaining activity at 0.01 µM (PKBα(h); Lut014 @ 0.01 μM) of 102% and a remaining activity at 1 µM (PKBα(h); Lut014 @ 1 μM) of 105%. It also gave a remaining activity at 0.01 µM (PKCθ(h); Lut014 @ 0.01 μM) of 106%, a remaining activity at 1 µM (PKCθ(h); Lut014 @ 1 μM) of 109% and a remaining activity at 0.01 µM (TAK1(h); Lut014 @ 0.01 μM) of 91%. The remaining activity at 1 µM (TAK1(h); Lut014 @ 1 μM) was 97%, the remaining activity at 0.01 µM (p70S6K(h); Lut014 @ 0.01 μM) was 108% and the remaining activity at 1 µM (p70S6K(h); Lut014 @ 1 μM) was 97%.
